In patent publication US20130065227A1, “METHODS OF INCREASING MACROPINOCYTOSIS IN CANCER CELLS” (priority 2010, published 2013):
{Fluor} = fluorophore: 5-carboxyfluorescein (FAM) or Alexa Fluor 488

Legend:
Assay type in all cases: cell-based
[1] = tested on: DU145 cells; assay: Confocal microscopy localization and co-localization
Experimental: FIG. 3 are photographs showing that AS1411 co-localizes with the macropinocytic marker, dextran. DU145 or Hs27 cells were incubated with the reagents indicated, then washed and fixed. Nuclei were stained with DAPI (blue). The distribution of markers was visualized by confocal microscopy and fluorescent images were overlaid to determine co-localization as indicated by the yellow color. (Panel A) 10 μM AS1411 labeled with Alexa Fluor 488 (green) and 0.2 mg/ml dextran-10K, macropinocytic marker, labeled with Alexa Fluor 594 (red) for 2 h at 37° C. (Panel B) Experiments similar to those in Panel A but using FL-CRO in place of FL-AS1411. (Panel C) Cells incubated with 5 μg/ml transferrin labeled with Alexa Fluor 488 (green) and 0.2 mg/ml dextran-10K labeled with Alexa Fluor 594 (red) for 30 min at 37° C. (Panel D) DU145 cells incubated with 5 μg/ml transferrin labeled with Alexa Fluor 594 (red) and 10 μM AS1411 labeled with Alexa Fluor 488 (green) for 30 min at 37° C. Scale bars, 10 μm.
Cells (4×10^4) in fresh supplemented culture medium were plated on 18 mm diameter glass cover slips for 18 h. The media was removed and replaced with serum-free medium containing 10 μM oligodeoxynucleotide, dextran-10K, or transferrin and incubated as describe in the Description of the Drawings. After incubation, cells were washed 3 times with ice-cold PBS, fixed in 4% paraformaldehyde in PBS for 30 min at room temperature, and washed three times with PBS. After washing, the cover slips were mounted on glass slides with ProLong Antifade (Molecular Probes) according to the manufacturer's directions to inhibit photobleaching. Immunofluorescence was documented with an LSM 510 inverted confocal laser-scanning microscope (Carl Zeiss, Oberkochen, Germany) equipped with an Omnichrome argon-krypton laser. Images were obtained with a Zeiss Plan-Apo 63× oil immersion objective (1.4 NA).

[2] = tested on: MDA-MB-231; assay: Uptake of AS1411 by macropinocytosis (MP); details: MDA-MB-231; Cancer, breast
Source text: (§1) There was little effect of amiloride treatment on uptake of FL-CRO in either DU145 cancer cells or non-malignant Hs27 cells (FIG. 9B). […] These studies also confirmed the previous results that there was higher overall uptake of FL-AS1411 in Hs27 cells than in DU145 cells.
(§2) It has recently been discovered that AS1411 can stimulate macropinocytosis (MP) in cancer cells and this finding was verified by several different methods and in multiple cancer cell lines (Table 1).

[3] = tested on: MCF7; assay: Uptake of AS1411 by macropinocytosis (MP); details: MCF7; Cancer, breast
Source text: as §1, §2

[4] = tested on: DU145 cells; assay: Uptake of fluorophore-labeled oligonucleotides by flow cytometry
Experimental: FIG. 1 are graphs showing that AS1411 cell internalization is an active process. Cells were plated 18 h before uptake analysis. After incubation as described, cells were washed with ice-cold PBS, incubated with 1 μg/ml 7-AAD, harvested and resuspended in 1% paraformaldehyde containing 2 μg/ml actinomycin D, then analyzed by flow cytometry. (Panel A) DU145 cells were incubated at 37° C. with fresh complete DMEM medium containing 10 μM FL-AS1411 (black line) or 10 μM FL-CRO (gray line) for the time indicated. (Panel B) DU145 cells were incubated for 2 h at 37° C. in complete or serum-free DMEM medium containing 10 μM FL-AS1411, or 10 μM FL-CRO, or no oligonucleotide. (Panel C) Various cell lines were incubated with 10 μM FL-AS1411 (black outline histogram), 10 μM FL-CRO (gray outline histogram) or without DNA (solid gray histogram) at 37° C. or 4° C. for 2 h. All experiments were repeated at least three times. Data are mean of three independent samples; bars, SE; *(p<0.05).
FIG. 2 are graphs showing that AS1411 is internalized by different endocytic mechanisms in DU145 cancer cells and in non-malignant Hs27 cells. DU145 or Hs27 cells were plated 18 h before uptake analysis. Cells were pre-treated as described with inhibitor (gray histogram) or the corresponding vehicle control (black histogram) before addition of 10 μM FL-AS1411 and incubation at 37° C. for 2 h. After incubation, cells were harvested and analyzed by flow cytometry. Pre-treatment conditions were at 37° C. with: (Panel A) 5 μM Cytochalasin D for 30 min; (Panel B) 80 μM Dynasore for 30 min; or (Panel C) 3 mM amiloride for 1 h. All experiments were repeated at least three times and representative data are shown. Solid gray histograms represent background autofluorescence of unstained cells.
DU145 cells were transfected for 48 h without siRNA (mock, M), or with 30 nM of one of three different nucleolin siRNAs (NCL1, NCL2, NCL3) or a control siRNA (scramble, S), or contransfected with 10 nM of each nucleolin siRNAs (mix). (Panel A) Cells were lysed and total cell lyses were analyzed by Western blotting using the antibodies shown. (Panel B) Cell-surface proteins from intact transfected DU145 cells were labeled covalently with membrane-impermeable biotinylating agent. Cells were lysed, then biotinylated plasma membrane proteins were captured with streptavidin-agarose beads and analyzed by blotting with anti-nucleolin antibody (upper panel). After stripping, the membrane was reprobed with antibodies for a plasma membrane marker (anti-pan Cadherin) and a nuclear marker (anti-histone 3) to confirm the fractionation. Total lysate (Lys) was used as control. (Panel C) The medium of transfected cells was replaced by fresh complete DMEM medium containing no oligonucleotide (gray dashed histogram) or 10 μM FL-CRO (gray solid line histogram) or 10 μM FL-AS1411 (black solid line histogram) and incubated at 37° C. for 2 h. After incubation, cells were harvested and analyzed by flow cytometry.
DU145 cells were plated 18 hr before uptake analysis. Cell medium was changed with fresh complete DMEM medium containing different concentrations of FL-AS1411 (black line) or FL-CRO (gray line), and incubated at 37° C. for 2 hrs. After incubation, cells were harvested and analyzed by flow cytometry.
FIG. 9 are graphs showing the effects of inhibitors on various endocytic pathways. DU145 or Hs27 cells were plated 18 hr before uptake analysis. (Panel A) DU145 cells were pre-treated with dynamin inhibitor, […] Dynasore (black histogram) or DMSO (gray histogram) for 30 min at 37° C. After pre-treatment, cells were treated with […] transferrin conjugated with Alexa Fluor 488 for 30 min at 37° C. (Panel B) DU145 and Hs27 cells were pre-treated with 3 mM amiloride (black histogram) or vehicle (serum-free medium, gray histogram) for 1 h at 37° C. After pre-treatment, FL-CRO was added at a concentration of 10 μM and incubated at 37° C. for 2 h. After incubation, cells were harvested and analyzed by FACS. […]

[5] = tested on: DU145 CD24^lo/CD44^hi cells; assay: Spheroid culture; details: 10 μM AS1411, drug replenished weekly
Experimental: DU145 CD24^lo/CD44^hi cells were sorted by FACS, plated for sphere culture, and treated with or without 10 μM AS1411. Media was changed and drug replenished weekly. Plates were monitored for dissolution of spheres. Once dissolution was observed, serial photographs were taken of each well and the total number of spheres counted.

Row | Substance | co-localization with transferrin ([1]; 5 μg/ml transferrin, 10 μM AS1411 labeled with Alexa Fluor 488, 30 min at 37° C.) | Update by MP? [2] | Update by MP? [3] | saturability of uptake (dose-response) ([4]; 37° C. for 2 hrs) | effect on spheroids [5] | uptake compared with FL-AS1411 (confocal microscopy) ([1]; 10 μM, 2 h) | uptake compared with FL-AS1411 ([4]; 10 μM, 37° C., time course)
1 | 5′-d(GGTGGTGGTGGTTGTGGTGGTGGTGG) [AS1411] | non-overlapping vesicles | Yes | Yes | did not appear to have saturable uptake | can cause disintegration of spheroids |  | 
2 | 5′-Fluor-d(TTTCCTCCTCCTCCTTCTCCTCCTCCTCC) (DNA TTTCCTCCTCCTCCTTCTCCTCCTCCTCC; DNA, 5' {Fluor}, backbone and methylation of C not given here) [FL-CRO, reference compound] |  |  |  |  |  | much lower than FL-AS1411 | consistently much lower than FL-AS1411
